The values below come from ChEMBL document CHEMBL1201862, “PubChem BioAssay data set” (2004).

SMILES strings stand for the structures.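 These data come from cells grown in 96-well plates and exposed to compound for 48 hours at five concentrations. Abbreviation: GI50, concentration required for 50% inhibition of growth.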 Activity calls are given as the source filed them. Cut-off read from the data, not from the text of the source: active = GI50 up to about 1.1 µM and inactive = higher.

What all share (test): NCI tumour cell line growth inhibition, 48 h
Assay [1] relates to NCI-H23.
For assay [2], the system named is UACC-62.
In assay [3] the test system is OVCAR-3.
In assay [4] the test system is BT-549.
For assay [5], the system named is SK-MEL-5.
Assay [6] deals with SF-539.
In assay [7] the test system is HCC 2998.
Assay [8] concerns OVCAR-4.
Assay [9] relates to HCT-15.
Assay [10] relates to A498.
The test system of assay [11] is SNB-19.
The subject of assay [12] is SNB-75.
For assay [13], the system named is U-251.
Assay [14] concerns SK-MEL-2.
The test system of assay [15] is DU-145.
Assay [16] relates to Hs-578T.
The subject of assay [17] is Malme-3M.
Assay [18] has as its system LOX IMVI.
Assay [19] deals with CAKI-1.
The subject of assay [20] is CCRF-CEM.

Consider `O=S(=O)(c1ccccc1)N1CCN(S(=O)(=O)c2ccccc2)c2ccccc21`, for which the GI50 in assay [1] was 52.1 µM (inactive); in [2], 64.7 µM (inactive); in assay [3], > 100 µM (inactive); in assay [4], > 100 µM (inactive); in [5], 73.3 µM (inactive); in [6] it was > 100 µM (inactive). For the same molecule, the GI50 is > 100 µM (inactive) in assay [7]; > 100 µM (inactive) in assay [8]; 92.7 µM in [9]; > 100 µM (inactive) in assay [10]; > 100 µM (inactive) in assay [11]; > 100 µM (inactive) in assay [12]. Also, the GI50 in assay [13], in [14], in [15], in assay [16], in assay [17] and in assay [18] was > 100 µM (inactive) each time. The GI50 in [19] is > 100 µM (inactive).
Turning to `CC(C)c1ccc(C(c2c(O)oc3ccccc3c2=O)c2c(O)oc3ccccc3c2=O)cc1`, the GI50 in [1] was 23.9 µM (inactive); in assay [2], 15.5 µM (inactive); in [3] it was 18.7 µM (inactive); in assay [4], 18.1 µM (inactive); in assay [5], 16 µM (inactive); in assay [6] it was 21.8 µM (inactive). For the same molecule, the GI50 was 18.7 µM (inactive) in assay [7]; 28.4 µM (inactive) in [8]; 19.1 µM in assay [9]; 11.6 µM (inactive) in assay [20]; 17.7 µM (inactive) in [10]; 20.6 µM (inactive) in assay [11]. For the same molecule, the GI50 in [12] is 25.9 µM (inactive); in [13], 15.1 µM (inactive); in [14], 14.5 µM (inactive); in assay [15], 23.8 µM (inactive); in assay [16], 25.6 µM (inactive); in [17], 20.6 µM (inactive). Moreover, the GI50 is 17.7 µM (inactive) in assay [18] and 22.8 µM (inactive) in assay [19].
Consider `CCCCCC/C=C/C#CCCCCCCCC(=O)O`, for which the GI50 in [1], in assay [3], in [4], in assay [5], in assay [6] and in [7] was > 100 µM (inactive) each time. Besides, the GI50 is > 100 µM (inactive) in assay [8]; more than 100 µM in [9]; 82.4 µM (inactive) in assay [20]; > 100 µM (inactive) in assay [10]; > 100 µM (inactive) in assay [11]; > 100 µM (inactive) in [12]. In addition, the GI50 in [13], in assay [14], in assay [15], in assay [16], in assay [17] and in assay [18] was > 100 µM (inactive) throughout. The GI50 in assay [19] was > 100 µM (inactive).
For the molecule `Cc1cccc2c1c(=O)c1c(O)c3c(cc1n2C)OC(C)(C)C=C3`, the GI50 in assay [1], in assay [2], in assay [3], in assay [4], in assay [5] and in assay [6] was > 10 µM (inactive) throughout. Further, the GI50 was > 10 µM (inactive) in assay [7]; > 10 µM (inactive) in [8]; more than 10 µM in assay [9]; > 10 µM (inactive) in assay [20]; > 10 µM (inactive) in [10]; > 10 µM (inactive) in assay [11]. In addition, the GI50 in assay [12], in assay [13], in [14], in assay [15], in assay [16] and in assay [17] was > 10 µM (inactive) throughout. Besides, the GI50 in [18] and in assay [19] was > 10 µM (inactive) throughout.
For the molecule `CC(=O)OC1=c2ccccc2=C(O)C2C1C=NN2C(C)=O` (stereo unspecified), the GI50 in [1], in assay [2], in assay [3], in assay [4], in [5] and in [6] was > 100 µM (inactive) in each case. Besides, the GI50 in assay [7] is > 100 µM (inactive); in assay [8] it was > 100 µM (inactive); in [9], more than 100 µM; in assay [20], > 100 µM (inactive); in [10], > 100 µM (inactive); in [11], > 100 µM (inactive). Also, the GI50 in assay [12] is 36.7 µM (inactive); in assay [13] it was > 100 µM (inactive); in [14], > 100 µM (inactive); in assay [15], > 100 µM (inactive); in assay [16], 88.5 µM (inactive); in assay [17] it was 44.3 µM (inactive). Besides, the GI50 in assay [18] and in assay [19] was > 100 µM (inactive) throughout.
Take `CCc1cccc(CC)c1NC(=O)C(C#N)C1=C(Cl)C(=O)c2ccccc2C1=O` (stereo unspecified): the GI50 was 13 µM (inactive) in assay [1]; 17.5 µM (inactive) in [2]; 16.8 µM (inactive) in assay [3]; 12.4 µM (inactive) in assay [4]; 14.7 µM (inactive) in [5]; 11.3 µM (inactive) in assay [6]. In addition, the GI50 was 16.9 µM (inactive) in assay [7]; 16.6 µM (inactive) in assay [8]; 20.6 µM in [9]; 1.33 µM (inactive) in [20]; 19 µM (inactive) in assay [10]; 18.1 µM (inactive) in assay [11]. Moreover, the GI50 in [12] is 5.18 µM (inactive); in assay [13], 15.3 µM (inactive); in assay [14] it was 18.8 µM (inactive); in [15], 16.8 µM (inactive); in [16] it was < 0.01 µM (active); in [17] it was 9.23 µM (inactive). The GI50 is 12.7 µM (inactive) in assay [18] and 15.6 µM (inactive) in [19].
Take `O=c1cc(CO)oc(C(O)c2ccccc2)c1O` (stereo unspecified): the GI50 in assay [1], in [2], in assay [3], in [4], in [5] and in assay [6] was > 100 µM (inactive) throughout. The GI50 in [7] is > 100 µM (inactive); in [8], > 100 µM (inactive); in assay [9], more than 100 µM; in assay [10] it was > 100 µM (inactive); in assay [11] it was > 100 µM (inactive); in assay [12] it was > 100 µM (inactive). Besides, the GI50 in assay [13], in [14], in assay [15], in assay [16], in assay [17] and in assay [18] was > 100 µM (inactive) in each case. Besides, in [19], the GI50 is > 100 µM (inactive).
For the molecule `Nc1ccc(Oc2ccc(C3(c4ccc(Oc5ccc(N)cc5)cc4)C4CC5CC(C4)CC3C5)cc2)cc1`, the GI50 was 13.8 µM (inactive) in [1]; 17.3 µM (inactive) in [2]; 0.353 µM (active) in assay [3]; 11.6 µM (inactive) in [4]; 14.4 µM (inactive) in assay [5]; 10.9 µM (inactive) in assay [6]. Also, the GI50 was 0.322 µM (active) in assay [7]; 8.71 µM (inactive) in assay [8]; 4.94 µM in assay [9]; 3.03 µM (inactive) in assay [20]; 2.91 µM (inactive) in assay [10]; 21.4 µM (inactive) in [11]. The GI50 was 54 µM (inactive) in assay [12]; 0.231 µM (active) in [13]; 23 µM (inactive) in assay [14]; 6.64 µM (inactive) in [15]; > 22.1 µM (inactive) in [16]; 23.7 µM (inactive) in assay [17]. Further, the results for the GI50 in assay [18] and in assay [19] were 7.31 µM (inactive) and 15.8 µM (inactive), respectively.
Regarding `N#Cc1c(Nc2nc3ccccc3s2)c2ccccc2n2c1nc1ccccc12`, the GI50 in assay [1], in assay [2], in assay [3], in assay [4], in assay [5] and in assay [6] was > 100 µM (inactive) in each case. Besides, the GI50 in assay [7] was > 100 µM (inactive); in assay [8] it was > 100 µM (inactive); in assay [9] it was more than 100 µM; in assay [10], 89.5 µM (inactive); in [11], > 100 µM (inactive); in assay [12], 24.5 µM (inactive). Also, the GI50 in assay [13] was 90.8 µM (inactive); in assay [14] it was > 100 µM (inactive); in [15], > 100 µM (inactive); in assay [16] it was 45.5 µM (inactive); in assay [17] it was > 100 µM (inactive); in [18], > 100 µM (inactive). In addition, in assay [19], the GI50 was > 100 µM (inactive).
For `CCc1cccc(C(C)C)c1NC(=O)C(=O)C1C(=O)Nc2ccccc2[S+]1[O-]` (stereo unspecified), the GI50 in assay [1], in assay [2], in [3], in assay [4], in assay [5] and in assay [6] was > 100 µM (inactive) throughout. The GI50 was > 100 µM (inactive) in assay [7]; > 100 µM (inactive) in [8]; more than 100 µM in assay [9]; > 100 µM (inactive) in assay [20]; > 100 µM (inactive) in assay [10]; > 100 µM (inactive) in assay [11]. The GI50 in assay [12], in [13], in assay [14], in assay [15], in assay [16] and in assay [17] was > 100 µM (inactive) each time. The GI50 in assay [18] and in [19] was > 100 µM (inactive) in each case.
